Assays:
HCT-116 cells [1] = assay: BrdU incorporation assay; assay type: cell-based; conditions: Homo sapiens, read-out: Brd U, concentration that inhibits BrdU incorporation by 50%
Procedure: This method measured the percentage of cells that incorporated the nucleotide analog, BrdU, into newly synthesized DNA as cells progressed through the S phase of the cell cycle. The inhibition of BrdU incorporation was used as a measure of a Cdk inhibitor's effect on S phase progression and DNA replication.
3 sets of HCT-116 cells (100,000 cells/set) were plated in T25 flasks and incubated with a test compound as above. Analysis was done at 24, 48, and 72 hours. BrdU was added to each T-25 flask from a stock of 10 mg/ml to a final concentration of 10 μM and the cells were incubated for an additional 16-18 hours at 37° C. The cells were then prepared for flow cytometric analysis according to manufacturer's protocol (BrdU Flow kit, BD-Pharmingen catalogue #2354KK) as follows:
Cells were harvested (adherent and floating) from the T25 flasks directly into Falcon 12×75 flow cytometric tubes as above followed by fixation and permeabilization with the addition of 100 μl of Cytofix/Cytoperm buffer (30 minutes, room temperature). The cells were then washed with 1 ml of Perm Wash buffer and the cell pellets were resuspended in 100 μl Cytoperm Plus buffer and incubated on ice for 10 minutes. The cells were then washed again with 1 ml of Perm Wash buffer and the fixation was repeated in 100 μl of Cytofix/Cyto Perm buffer for 10 minutes at room temperature. The cells were then washed with 1 ml of Perm Wash buffer. The cells were next treated for one hour at 37° C. with 100 μl DNase to expose incorporated BrdU followed by another wash step with 1 ml of Perm Wash buffer. […] Cells were protected from light and incubated at room temperature for 20-30 minutes. Following the incubation, the cells were washed with 1 ml of Perm Wash buffer, resuspended in 300 μl of 2% FBS in PBS, and analyzed on the flow cytometer. Results are presented in Table 2 as the concentration of compound (μM) that inhibits of BrdU incorporation by 50%.

HCT-116 cells [2] = assay: Calcein AM viability assay, HCT-116; assay type: cell-based; conditions: Homo sapiens
Procedure: The potency of Cdk inhibitors, as measured by loss of cellular viability, was determined with the Calcein AM assay (Molecular Probes). Calcein AM is a substrate of intracellular esterases, which is cleaved only in viable cells to generate a fluorescent product that can be quantified with a fluorescent plate reader. The fluorescent signal is proportional to the number of viable cells, and thus loss of signal in response to the exposure of cells to Cdk inhibitors correlates with a loss of viability. This assay can distinguish cell cycle arrest, in which cells may still by viable, from loss of viability and is thus well suited for the evaluation of Cdk inhibitors. A compound that is a potent cytotoxic, may cause significant loss of cell viability in such assay.
Cellular IC50's were determined in the human colorectal carcinoma cell line, HCT-116, and the normal human fibroblast, IMR90. Protein adjusted IC50's were also determined in HCT-116.
HCT-116 or IMR90 cells were recovered from sub-confluent plates by trypsinization and 1,000 or 4,000 cells, respectively, were plated in 24-well dishes and incubated overnight at 37° C., 5% CO2. HCT-116 cells were cultured in RPMI-1640, 10% FCS, and IMR90 cells were cultured in Minimum Essential Medium-alpha, 10% FCS. After overnight incubation to allow adherence, the media was aspirated from each well and replaced with media containing a test compound at a concentration from 0 to 250 nM, spanning a total of 7 doses. The plates were returned to the incubator and cultured for an additional 72 hours (3 days). […] After 72-hours incubation with the test compound, the cells were washed twice with 1×PBS, taking special care to remove all residual buffer.
A 5 μM Calcein AM solution was prepared by dissolving a […] aliquot of Calcein (Molecular Probes catalog # C3100) in 50 μl DMSO. After the Calcein had completely dissolved (10 minutes at room temperature), it was diluted into 10 ml PBS. Calcein/PBS (0.5 ml) was added to each well. The plates were incubated for 75 minutes at 37° C. (protected from light) and the fluorescent signal was read on a fluorescent plate reader (excitation 485/20 and emission 530/25).

arrested HCT-116 cells = assay: Arrested cell assay, arrested HCT-116 tumor cells; assay type: cell-based; conditions: Homo sapiens, serum-starved arrested cells, 72 hours, read-out: Arrested cell assay HCT IC50
Procedure: (§1) Cyclin-dependent kinase (Cdk) activity is required to promote the progression of cells through distinct phases of the cell division cycle. The proliferation of normal, non-transformed, cells in culture requires the presence of growth factors, the removal of which, through serum deprivation, leads to a loss of Cdk activity and consequent exit from the cell cycle as cells enter the quiescent phase, G0.
HCT-116 cells were plated in triplicate for each compound concentration to be tested in RPMI 1640 media containing 10% fetal calf serum at a density of either 200 or 2,000 cells per well in 24 well dishes, and incubated overnight at 37° C., 5% CO2. The media from the plate containing 2,000 cells per well was removed, cells were washed once with serum free media and 1 ml of serum free media was placed on cells. The plates containing cells both in the presence and absence of serum were incubated for 6 additional days.
(§2) The cells are incubated in the presence of the compounds for 72 hours (3 days) at 37° C. […] Cycling and arrested HCT-116 cells as well as cycling IMR90 cells were exposed to a panel of 6 doses ranging from 5 to 250 nM. For arrested normal cells, the range of doses was increased to 50 nM to 25 μM, to compensate for the expected decrease in activity.
(§3) The effect of 72 hours of compound exposure on cellular viability was assessed in the Calcein AM assay. Calcein AM is a fluorescent substrate of intracellular esterases that are only active in viable cells. Cleavage of the substrate thus provides a measure of viability, which is proportional to cell number.
(§4) A Calcein AM stock solution was prepared by dissolving a 50 μg aliquot (Molecular Probes catalogue # C3100) in 50 μl DMSO. The tube was incubated at room temperature for approximately 10 minutes to ensure that the Calcein had dissolved completely. The calcein was diluted into 10 ml PBS to prepare the final solution, which was protected from light.
(§5) The media was aspirated off the cells, which were then washed twice with 1 ml PBS to remove the PBS completely from cells by aspiration. 0.5 ml of the Calcein/PBS solution was transferred by pipette into each well. The plates were incubated at 37° C. for 75 minutes (protected from light) and read on a fluorescent plate reader (excitation 485/20 and emission 530/25).

arrested IMR90 cells = assay: Arrested cell assay, arrested IMR90 normal cells; assay type: cell-based; conditions: Homo sapiens, IMR-90; serum-starved arrested cells, 72 hours; read-out: Arrested cell assay IMR90 IC50
Procedure: as §1
IMR90 cells were plated in triplicate for each compound concentration to be tested in MEM-A media containing 10% fetal calf serum at a density of either 2,000 or 20,000 cells per well in 24-well dishes and incubated overnight at 37° C., 5% CO2. The media was removed from the 20,000 cell-per-well dish, cells were washed once with serum-free media, and serum-free media was placed on cells. The plates containing cells both in the presence and absence of serum were incubated for 3 additional days.
as §2, §3, §4, §5

Cdk2/cyclin E = target: T1, Cdk2/cyclin E (Homo sapiens, UniProt P24941); assay: Biochemical kinase assay Cdk2/cyclin E; conditions: Table 6
T1 construct: made in house; host or cells: Sf9 insect cells
Method in brief: (§6)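 Sf9-expressed Cdk/cyclin heterodimers phosphorylate GST-Rb (residues 379–928, 40 μg) with 50 μM ATP plus [γ-33P]ATP, pH 7.5, 10% DMSO, 15 min at 30 °C. Compounds 1 nM–10 μM. 33P captured on glutathione-sepharose and scintillation-counted; activity relative to DMSO control after EDTA-background subtraction.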

Cdk4/cyclin D1 = target: T2, Cdk4/cyclin D1 (Homo sapiens, UniProt P11802); assay: Biochemical kinase assay Cdk4/cyclin D1; conditions: Table 6
T2 construct: made in house; host or cells: Sf9 insect cells
Method in brief: as §6

Cdc2/cyclin B = target: T3, Cdc2/cyclin B (Homo sapiens, UniProt P06493); assay: Biochemical kinase assay Cdc2/cyclin B; conditions: Table 6
T3 construct: purchased
Method in brief: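 Radiometric TCA-precipitation assay measuring [γ-32P]ATP incorporation into Histone H1 (20 μg); 50 μM ATP, 10% DMSO, Tris pH 7.5 with MgCl2 and DTT. Compounds at 1 nM to 10 μM; reaction 20 min at 30 °C, stopped with EDTA/ATP. Activity relative to DMSO control after subtracting 50 mM EDTA background.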

HIV-1 ROJO = assay: Antiviral activity in PBMCs infected with HIV-1 ROJO (reverse transcriptase); assay type: cell-based
Procedure: (§7) The activity of the certain compounds of the invention was evaluated in peripheral blood mononuclear cells (PBMCs) infected with the low passage, clinical isolate HIV-1 ROJO to generate a measure of the efficacy of these compounds in acutely infected cells. The use of these normal human cells allows an estimate of the therapeutic index of these compounds to be made. Fresh PBMCs from two donors were pooled and stimulated with PHA-P for 48-72 hours. The cells were then cultured in the presence of IL-2 to maintain the cell division initiated by the mitogenic signal. The virus was added at a multiplicity of infection of 0.1. The cells were cultured for 7 days post infection prior to the evaluation of efficacy. Viral replication was measured by the level of reverse transcriptase activity in the supernatant and cytotoxicity was measured with the MTS assay.

[3] = Cytotoxicity in PBMCs (MTS assay); assay type: cell-based, human; conditions: human
Procedure: as §7

[4] = HCT-116, 72 h, Calcein AM, 72 hours, read-out: HCT-116 IC50 Viability

T3 sequence (P06493 whole entry, species assumed): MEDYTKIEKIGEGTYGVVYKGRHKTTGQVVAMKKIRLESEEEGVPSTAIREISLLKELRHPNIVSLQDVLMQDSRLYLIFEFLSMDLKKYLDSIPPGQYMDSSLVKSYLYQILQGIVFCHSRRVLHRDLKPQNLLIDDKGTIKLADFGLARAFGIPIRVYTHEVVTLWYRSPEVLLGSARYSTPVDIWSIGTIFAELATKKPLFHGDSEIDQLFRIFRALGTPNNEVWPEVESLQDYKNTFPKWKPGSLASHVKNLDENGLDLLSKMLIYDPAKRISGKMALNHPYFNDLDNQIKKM
T3 sequence (P14635 whole entry partner, species assumed): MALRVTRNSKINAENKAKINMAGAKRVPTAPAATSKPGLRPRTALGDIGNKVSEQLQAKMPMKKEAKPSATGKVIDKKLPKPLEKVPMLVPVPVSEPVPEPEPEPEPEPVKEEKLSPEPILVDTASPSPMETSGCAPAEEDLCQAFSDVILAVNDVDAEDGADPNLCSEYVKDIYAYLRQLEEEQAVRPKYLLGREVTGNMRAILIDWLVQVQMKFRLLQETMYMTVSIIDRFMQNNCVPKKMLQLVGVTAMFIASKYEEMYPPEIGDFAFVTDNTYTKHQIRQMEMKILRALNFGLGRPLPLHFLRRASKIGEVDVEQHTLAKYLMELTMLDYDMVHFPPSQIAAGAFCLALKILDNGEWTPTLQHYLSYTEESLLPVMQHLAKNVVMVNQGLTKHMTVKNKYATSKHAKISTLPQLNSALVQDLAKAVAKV
T2 sequence (P11802 whole entry, species assumed): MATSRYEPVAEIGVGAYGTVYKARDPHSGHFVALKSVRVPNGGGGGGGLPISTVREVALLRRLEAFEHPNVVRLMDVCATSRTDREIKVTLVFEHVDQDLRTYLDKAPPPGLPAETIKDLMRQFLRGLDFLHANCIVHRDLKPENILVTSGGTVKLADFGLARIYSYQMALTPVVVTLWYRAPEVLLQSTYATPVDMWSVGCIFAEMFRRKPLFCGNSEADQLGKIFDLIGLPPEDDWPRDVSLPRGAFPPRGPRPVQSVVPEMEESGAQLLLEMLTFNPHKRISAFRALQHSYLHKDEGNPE
T2 sequence (P24385 whole entry partner, species assumed): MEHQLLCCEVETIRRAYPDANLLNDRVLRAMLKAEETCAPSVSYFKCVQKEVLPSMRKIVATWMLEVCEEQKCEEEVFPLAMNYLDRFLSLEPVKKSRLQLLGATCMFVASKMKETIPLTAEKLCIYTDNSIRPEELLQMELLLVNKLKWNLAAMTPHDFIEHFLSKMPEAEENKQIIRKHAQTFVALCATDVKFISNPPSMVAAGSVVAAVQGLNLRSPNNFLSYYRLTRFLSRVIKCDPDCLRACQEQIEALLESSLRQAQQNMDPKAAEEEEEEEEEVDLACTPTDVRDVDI

IC50 (HCT-116 cells [1]; HCT-116, 24 h) [nM] | IC50 (HCT-116 cells [1]; HCT-116, 48 h) [nM] | IC50 (HCT-116 cells [2]; [4]) [nM] | IC50 (arrested HCT-116 cells) [nM] | Structure (SMILES) | IC50 (arrested IMR90 cells) [nM] | other results
< 100 | – | < 100 | – | Cc1cc(OCCN2CCCC2)ccc1-c1[nH]nc2c1C(=O)c1c(NC(=O)NN3CCN(C)CC3)cccc1-2 [L] | – | –
– | < 100 | – | < 100 | CN1CCN(NC(=O)Nc2cccc3c2C(=O)c2c-3n[nH]c2-c2ccc(OCCN3CCOCC3)cc2)CC1 [Q] | > 100 | –

The next lines start with the molecule.

Structure (SMILES) | IC50 (HCT-116 cells [1]; HCT-116, 24 h) [nM] | IC50 (HCT-116 cells [1]; HCT-116, 48 h) [nM] | IC50 (HCT-116 cells [2]; [4]) [nM] | IC50 (arrested HCT-116 cells) [nM] | IC50 (arrested IMR90 cells) [nM] | other results
CC(C)N1CCN(Cc2cc(-c3[nH]nc4c3C(=O)c3c(NC(=O)NN5CCOCC5)cccc3-4)ccc2O)CC1 [K] | < 100 | < 100 | < 100 | < 10 | > 1000 | –
CN1CCN(NC(=O)Nc2cccc3c2C(=O)c2c-3n[nH]c2-c2ccc(OCCN3CCCC3)cc2)CC1 [F] | – | – | – | – | > 1000 | IC50 (HCT-116 cells [1]; HCT-116, 72 h): < 1000 nM; IC50 (HCT-116 cells [2]; HCT-116, plus 1 mg/ml alpha acidic glycoprotein and 45 mg/ml human serum albumin, read-out: HCT-116 IC50 Protein adjusted): < 100 nM
CC(C)c1nn(-c2c(Cl)cc(Cl)cc2Cl)c2nc(Cc3ccc(NS(=O)(=O)CCCN4CCOCC4)cc3)[nH]c(=O)c12 [D] | – | < 100 | – | < 10 | > 1000 | IC50 (HCT-116 cells [1]; HCT-116, 72 h): < 100 nM
O=C(Nc1cccc2c1C(=O)c1c-2n[nH]c1-c1ccc(OCCN2CCCC2)cc1)NN1CCOCC1 [Compound I] | < 10 | – | < 100 | < 100 | > 1000 | –
CC(C)c1nn(-c2c(Cl)cc(Cl)cc2Cl)c2nc(Cc3ccc(OCC(C)(C)O)cc3)[nH]c(=O)c12 [Compound A64] | – | – | – | – | – | IC50 (HCT-116 cells [2]; HCT-116, non-protein adjusted, Table 6, read-out: HCT-116 viability IC50): < 100 nM; IC50 (Cdk2/cyclin E): < 100 nM; IC50 (Cdk4/cyclin D1): < 1000 nM; IC50 (Cdc2/cyclin B): < 100 nM; TI: TC50/IC50 (HIV-1 ROJO): >10; IC50 (HIV-1 ROJO; Human immunodeficiency virus 1, PBMC, 168 h, read-out: IC50: 50% inhibition of virus replication measured by reverse transcriptase levels in the supernatant, HIV-1 ROJO, 7 days post infection): < 10 nM; CC50 at 7 days [3]: < 100 nM

Source: patent US7605175B2, “Inhibitors of cyclin-dependent kinases, compositions and uses related thereto” (GPC Biotech AG, priority 2001, dated 2009)
